Measured values from patent US20140120083A1, “TREATMENT OF CANCERS USING PI3 KINASE ISOFORM MODULATORS” (INFINITY PHARMACEUTICALS, INC., priority 2012, published 2014).

Key:
Assay type in all cases: biochemical
PI3K γ = biological target: T1, PI3K γ (Homo sapiens, UniProt P48736); test: In vitro IC50, PI3K γ
T1 construct: purchased Sigma
Description: (§1) An exemplary system is PI 3-Kinase (human) HTRF™ Assay from Upstate.

PI3K α = biological target: T2, PI3K α (Homo sapiens, UniProt P42336); test: In vitro IC50, PI3K α
T2 construct: purchased Upstate
Description: as §1

PI3K β = PI3K β (Homo sapiens, UniProt P42338); test: In vitro IC50, PI3K β
Description: as §1

PI3K δ = PI3K δ (Homo sapiens, UniProt O00329); test: In vitro IC50, PI3K δ; design: purchased Upstate
Description: as §1

Chain of PI3K δ (O00329 whole entry): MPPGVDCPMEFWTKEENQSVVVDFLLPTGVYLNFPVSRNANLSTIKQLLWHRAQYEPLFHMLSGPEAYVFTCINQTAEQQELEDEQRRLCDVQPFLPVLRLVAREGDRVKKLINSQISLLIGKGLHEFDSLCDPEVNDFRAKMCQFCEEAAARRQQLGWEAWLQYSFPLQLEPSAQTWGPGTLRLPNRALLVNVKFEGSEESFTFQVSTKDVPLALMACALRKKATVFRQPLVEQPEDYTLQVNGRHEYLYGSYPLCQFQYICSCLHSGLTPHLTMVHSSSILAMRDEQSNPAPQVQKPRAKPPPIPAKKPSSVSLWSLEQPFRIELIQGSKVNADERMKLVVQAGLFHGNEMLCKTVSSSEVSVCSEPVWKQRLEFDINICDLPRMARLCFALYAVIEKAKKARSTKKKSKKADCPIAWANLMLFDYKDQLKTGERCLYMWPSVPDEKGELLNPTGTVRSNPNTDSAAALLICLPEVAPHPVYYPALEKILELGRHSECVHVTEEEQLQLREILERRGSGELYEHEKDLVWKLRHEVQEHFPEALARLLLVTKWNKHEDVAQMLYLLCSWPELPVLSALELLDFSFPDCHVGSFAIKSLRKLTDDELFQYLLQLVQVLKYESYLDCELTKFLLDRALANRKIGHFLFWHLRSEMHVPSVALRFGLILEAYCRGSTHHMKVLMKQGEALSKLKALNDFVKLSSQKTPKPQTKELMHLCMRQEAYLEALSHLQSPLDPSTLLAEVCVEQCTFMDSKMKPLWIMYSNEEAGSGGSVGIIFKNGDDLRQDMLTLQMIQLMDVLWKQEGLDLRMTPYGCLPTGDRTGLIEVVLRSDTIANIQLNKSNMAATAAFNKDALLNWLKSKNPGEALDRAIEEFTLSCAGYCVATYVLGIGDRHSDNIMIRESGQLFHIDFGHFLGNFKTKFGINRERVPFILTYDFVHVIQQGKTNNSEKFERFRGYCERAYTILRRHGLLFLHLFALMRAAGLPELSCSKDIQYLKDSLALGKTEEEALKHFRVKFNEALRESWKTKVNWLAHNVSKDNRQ
Chain of PI3K δ (P27986 whole entry partner): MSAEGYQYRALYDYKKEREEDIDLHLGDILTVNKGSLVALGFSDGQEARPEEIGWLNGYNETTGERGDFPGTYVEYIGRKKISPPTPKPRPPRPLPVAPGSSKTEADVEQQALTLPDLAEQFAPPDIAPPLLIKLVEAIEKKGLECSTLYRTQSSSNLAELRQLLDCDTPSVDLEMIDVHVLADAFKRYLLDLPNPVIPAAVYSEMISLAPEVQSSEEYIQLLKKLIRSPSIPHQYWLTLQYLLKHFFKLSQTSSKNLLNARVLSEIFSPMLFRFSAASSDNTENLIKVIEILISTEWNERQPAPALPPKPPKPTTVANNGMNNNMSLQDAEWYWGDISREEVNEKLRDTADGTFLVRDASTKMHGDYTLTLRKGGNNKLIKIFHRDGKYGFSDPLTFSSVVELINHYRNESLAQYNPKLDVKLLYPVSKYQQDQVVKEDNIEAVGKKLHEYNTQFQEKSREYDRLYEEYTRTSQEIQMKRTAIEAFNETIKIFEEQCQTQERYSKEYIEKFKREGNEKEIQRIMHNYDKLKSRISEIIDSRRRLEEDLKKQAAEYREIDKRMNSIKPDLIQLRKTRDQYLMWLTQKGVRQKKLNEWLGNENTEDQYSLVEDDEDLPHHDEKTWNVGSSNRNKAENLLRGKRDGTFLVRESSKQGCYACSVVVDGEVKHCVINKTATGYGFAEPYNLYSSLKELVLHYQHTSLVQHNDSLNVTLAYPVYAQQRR
T2 sequence (P42336 whole entry): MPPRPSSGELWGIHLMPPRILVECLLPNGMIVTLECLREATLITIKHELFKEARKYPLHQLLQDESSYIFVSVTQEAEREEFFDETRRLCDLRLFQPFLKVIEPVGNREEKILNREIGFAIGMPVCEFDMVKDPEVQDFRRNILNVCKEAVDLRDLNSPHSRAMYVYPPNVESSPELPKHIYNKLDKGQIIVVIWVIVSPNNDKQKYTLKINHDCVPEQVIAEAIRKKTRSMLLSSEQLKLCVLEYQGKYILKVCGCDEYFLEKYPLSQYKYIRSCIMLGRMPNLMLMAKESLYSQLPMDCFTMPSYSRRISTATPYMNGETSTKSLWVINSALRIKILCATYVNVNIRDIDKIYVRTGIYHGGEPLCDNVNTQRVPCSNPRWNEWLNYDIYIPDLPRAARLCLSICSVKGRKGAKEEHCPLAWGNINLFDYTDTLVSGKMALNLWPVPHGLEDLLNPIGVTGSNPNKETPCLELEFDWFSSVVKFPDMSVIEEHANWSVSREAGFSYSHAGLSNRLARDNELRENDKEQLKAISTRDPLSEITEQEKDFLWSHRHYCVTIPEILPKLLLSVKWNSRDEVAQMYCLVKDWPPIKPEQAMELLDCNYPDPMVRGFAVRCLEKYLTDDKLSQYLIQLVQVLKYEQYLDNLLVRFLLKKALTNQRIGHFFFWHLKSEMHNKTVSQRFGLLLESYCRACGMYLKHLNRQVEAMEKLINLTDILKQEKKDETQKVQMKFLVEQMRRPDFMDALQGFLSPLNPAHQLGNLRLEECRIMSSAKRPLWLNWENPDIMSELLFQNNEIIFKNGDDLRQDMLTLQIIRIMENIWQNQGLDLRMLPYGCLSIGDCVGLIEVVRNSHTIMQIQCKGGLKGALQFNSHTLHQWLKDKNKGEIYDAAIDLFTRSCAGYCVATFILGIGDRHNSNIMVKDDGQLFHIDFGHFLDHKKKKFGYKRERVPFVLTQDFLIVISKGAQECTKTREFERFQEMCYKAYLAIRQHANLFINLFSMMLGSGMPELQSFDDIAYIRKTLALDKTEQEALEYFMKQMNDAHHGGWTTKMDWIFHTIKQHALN
T2 sequence (P27986 whole entry partner): as the sequence (P27986 whole entry partner) above
Chain of PI3K β (P42338 whole entry): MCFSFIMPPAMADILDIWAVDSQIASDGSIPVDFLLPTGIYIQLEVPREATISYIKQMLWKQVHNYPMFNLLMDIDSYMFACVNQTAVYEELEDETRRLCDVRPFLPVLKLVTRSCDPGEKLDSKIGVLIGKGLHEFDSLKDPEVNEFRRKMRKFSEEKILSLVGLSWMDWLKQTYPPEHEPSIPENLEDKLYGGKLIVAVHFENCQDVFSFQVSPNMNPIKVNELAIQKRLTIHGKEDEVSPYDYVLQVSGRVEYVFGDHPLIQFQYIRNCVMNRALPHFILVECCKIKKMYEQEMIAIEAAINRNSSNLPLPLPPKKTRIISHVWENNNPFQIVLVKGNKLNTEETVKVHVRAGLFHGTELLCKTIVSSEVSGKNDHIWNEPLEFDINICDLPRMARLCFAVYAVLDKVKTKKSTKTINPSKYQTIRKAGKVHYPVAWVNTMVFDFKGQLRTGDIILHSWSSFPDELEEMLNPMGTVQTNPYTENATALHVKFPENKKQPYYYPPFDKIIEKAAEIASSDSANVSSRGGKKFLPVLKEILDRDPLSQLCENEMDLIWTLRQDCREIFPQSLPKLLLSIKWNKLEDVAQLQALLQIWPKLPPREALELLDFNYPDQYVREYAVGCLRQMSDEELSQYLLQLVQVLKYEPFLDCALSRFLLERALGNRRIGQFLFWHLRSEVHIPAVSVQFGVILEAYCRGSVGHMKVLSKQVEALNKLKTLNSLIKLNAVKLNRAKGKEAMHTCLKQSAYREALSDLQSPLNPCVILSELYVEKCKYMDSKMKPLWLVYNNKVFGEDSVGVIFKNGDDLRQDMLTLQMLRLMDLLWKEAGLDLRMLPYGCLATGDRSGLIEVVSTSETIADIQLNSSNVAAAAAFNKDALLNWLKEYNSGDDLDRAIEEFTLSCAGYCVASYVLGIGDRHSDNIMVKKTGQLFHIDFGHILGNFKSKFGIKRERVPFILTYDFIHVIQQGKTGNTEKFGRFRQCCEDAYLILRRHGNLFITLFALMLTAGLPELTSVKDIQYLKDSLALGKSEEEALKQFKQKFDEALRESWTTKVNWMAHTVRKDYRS
T1 sequence (P48736 whole entry): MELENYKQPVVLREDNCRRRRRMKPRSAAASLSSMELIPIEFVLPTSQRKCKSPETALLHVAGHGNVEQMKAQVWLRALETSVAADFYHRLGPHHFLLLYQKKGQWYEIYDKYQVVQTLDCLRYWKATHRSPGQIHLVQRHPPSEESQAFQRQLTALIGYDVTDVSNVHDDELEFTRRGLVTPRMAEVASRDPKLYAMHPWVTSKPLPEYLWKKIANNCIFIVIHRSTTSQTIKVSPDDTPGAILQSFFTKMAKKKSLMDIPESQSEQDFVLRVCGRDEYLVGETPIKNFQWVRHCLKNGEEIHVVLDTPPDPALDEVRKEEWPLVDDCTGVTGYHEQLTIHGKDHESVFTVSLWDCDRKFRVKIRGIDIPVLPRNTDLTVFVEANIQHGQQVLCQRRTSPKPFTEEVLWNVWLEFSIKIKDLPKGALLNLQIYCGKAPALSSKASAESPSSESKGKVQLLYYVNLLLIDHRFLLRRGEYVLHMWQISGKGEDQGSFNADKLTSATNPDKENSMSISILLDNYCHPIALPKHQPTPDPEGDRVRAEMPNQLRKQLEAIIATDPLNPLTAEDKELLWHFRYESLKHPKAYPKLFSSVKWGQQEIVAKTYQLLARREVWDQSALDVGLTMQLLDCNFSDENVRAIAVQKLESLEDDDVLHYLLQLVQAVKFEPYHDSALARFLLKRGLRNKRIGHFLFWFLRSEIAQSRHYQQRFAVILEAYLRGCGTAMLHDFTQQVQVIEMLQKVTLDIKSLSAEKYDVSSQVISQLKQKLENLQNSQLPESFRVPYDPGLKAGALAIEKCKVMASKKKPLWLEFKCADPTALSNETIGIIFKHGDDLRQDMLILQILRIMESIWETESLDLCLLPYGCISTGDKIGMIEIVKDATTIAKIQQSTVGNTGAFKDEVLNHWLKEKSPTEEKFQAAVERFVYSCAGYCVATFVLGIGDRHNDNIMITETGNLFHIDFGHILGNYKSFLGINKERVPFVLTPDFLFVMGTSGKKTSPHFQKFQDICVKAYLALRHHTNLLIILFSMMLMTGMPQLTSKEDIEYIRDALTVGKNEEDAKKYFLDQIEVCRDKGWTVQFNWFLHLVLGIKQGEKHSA

SMILES	IC50 (PI3K γ) [nM]	IC50 (PI3K α) [nM]	IC50 (PI3K β) [nM]	IC50 (PI3K δ) [nM]
Cc1ccccc1-n1c(Cn2nc(-c3cccc(O)c3)c3c(N)ncnc32)cc2cccc(F)c2c1=O [Compound 59]	< 100	> 10000	> 10000	< 100
Cc1cccc2cc(Cn3nc(I)c4c(N)ncnc43)n(C(C)C)c(=O)c12 [Compound 60]	> 10000	> 10000	> 10000	< 100
Cc1cccc2cc(Cn3nc(C#C[C@@H](C)O)c4c(N)ncnc43)n(C(C)C)c(=O)c12 [Compound 61]	< 10000	> 10000	< 10000	< 100
Cc1cccc2cc(Cn3nc(-c4cccc(O)c4)c4c(N)ncnc43)n(C(C)C)c(=O)c12 [Compound 62]	< 100	> 10000	< 1000	< 100
Cc1cccc2cc(Cn3nc(-c4cc(O)cc(F)c4)c4c(N)ncnc43)n(C3CCCC3)c(=O)c12 [Compound 63]	< 100	< 10000	< 10000	< 100
Cc1cccc2cc(Cn3nc(-c4ccc(F)c(O)c4)c4c(N)ncnc43)n(C3CCCC3)c(=O)c12 [Compound 64]	< 100	> 10000	> 10000	< 100
Cc1cccc2cc(Cn3nc(C#C[C@@H](C)O)c4c(N)ncnc43)n(C3CCCC3)c(=O)c12 [Compound 65]	< 10000	> 10000	< 10000	< 100
Cc1cccc2cc(Cn3nc(-c4cc(O)cc(F)c4)c4c(N)ncnc43)n(C(C)C)c(=O)c12 [Compound 66]	< 1000	< 10000	< 1000	< 100
Cc1cccc2cc(Cn3nc(-c4ccc(F)c(O)c4)c4c(N)ncnc43)n(C(C)C)c(=O)c12 [Compound 67]	< 100	> 10000	< 10000	< 100
Cc1cccnc1-n1c(Cn2nc(-c3ccc(F)c(O)c3)c3c(N)ncnc32)cc2cccc(C)c2c1=O [Compound 68]	< 100	> 10000	> 10000	< 100
Cc1cccnc1-n1c(Cn2nc(C#C[C@@H](C)O)c3c(N)ncnc32)cc2cccc(C)c2c1=O [Compound 69]	> 10000	> 10000	> 10000	< 1000
COc1ccccc1-n1c(Cn2nc(I)c3c(N)ncnc32)cc2cccc(C)c2c1=O [Compound 70]	< 1000	> 10000	> 10000	< 100
Cc1cccc2cc(Cn3nc(-c4ccc(Cl)c(O)c4)c4c(N)ncnc43)n(C3CCCC3)c(=O)c12 [Compound 71]	< 1000	> 10000	< 10000	< 1000
Cc1cccnc1-n1c(Cn2nc(-c3ccc(Cl)c(O)c3)c3c(N)ncnc32)cc2cccc(C)c2c1=O [Compound 72]	< 100	> 10000	< 10000	< 100
Cc1cccnc1-n1c(Cn2nc(-c3cccc(O)c3)c3c(N)ncnc32)cc2cccc(C)c2c1=O [Compound 73]	< 1000	> 10000	> 10000	< 100
COc1ccccc1-n1c(Cn2nc(-c3cccc(O)c3)c3c(N)ncnc32)cc2cccc(C)c2c1=O [Compound 74]	< 100	> 10000	< 10000	< 100
Cc1cccc2cc(Cn3nc(I)c4c(N)ncnc43)n(-c3ccccc3O)c(=O)c12 [Compound 79]	< 100	> 10000	> 10000	< 100

SMILES	IC50 (PI3K γ) [nM]	IC50 (PI3K α) [nM]	IC50 (PI3K β) [nM]	IC50 (PI3K δ) [nM]
COc1ccccc1-n1c(Cn2nc(C#C[C@@H](C)O)c3c(N)ncnc32)cc2cccc(C)c2c1=O [Compound 80]	< 1000	> 10000	> 10000	< 100
Cc1cccc2cc(Cn3nc(-c4cccc(O)c4)c4c(N)ncnc43)n(-c3ccccc3O)c(=O)c12 [Compound 81]	< 100	> 10000	< 10000	< 100
Cc1cccc2cc(Cn3nc(-c4cccc(O)c4)c4c(N)ncnc43)n(-c3ccccc3C(C)C)c(=O)c12 [Compound 82]	< 100	> 10000	< 1000	< 100
Cc1cccc2cc(Cn3nc(C#C[C@@H](C)O)c4c(N)ncnc43)n(-c3ccccc3C(C)C)c(=O)c12 [Compound 83]	< 100	> 10000	< 10000	< 100
COc1ccccc1-n1c(Cn2nc(-c3cc(O)cc(F)c3)c3c(N)ncnc32)cc2cccc(C)c2c1=O [Compound 84]	< 100	< 10000	< 10000	< 100
Cc1cccc2cc(Cn3nc(I)c4c(N)ncnc43)n(C3CC3)c(=O)c12 [Compound 86]	< 100	< 10000	< 10000	< 100
Cc1cccc2cc(Cn3nc(I)c4c(N)ncnc43)n(C3CCCCC3)c(=O)c12 [Compound 87]	< 100	> 10000	> 10000	< 1000
CCc1ccccc1-n1c(Cn2nc(-c3cccc(O)c3)c3c(N)ncnc32)cc2cccc(C)c2c1=O [Compound 88]	< 100	> 10000	> 10000	< 100
CCc1ccccc1-n1c(Cn2nc(-c3cc(O)cc(F)c3)c3c(N)ncnc32)cc2cccc(C)c2c1=O [Compound 89]	< 100	< 10000	< 1000	< 100
Cc1cccc2cc(Cn3nc(-c4cc(O)cc(F)c4)c4c(N)ncnc43)n(-c3ccccc3O)c(=O)c12 [Compound 90]	< 100	< 10000	< 1000	< 100
Cc1cccc2cc(Cn3nc(C#C[C@@H](C)O)c4c(N)ncnc43)n(-c3ccccc3O)c(=O)c12 [Compound 91]	< 10000	> 10000	> 10000	< 100
Cc1cccnc1-n1c(Cn2nc(-c3cc(O)cc(F)c3)c3c(N)ncnc32)cc2ccccc2c1=O [Compound 93]	< 1000	> 10000	> 10000	< 100
Cc1cccc2cc(Cn3nc(-c4cc(O)cc(F)c4)c4c(N)ncnc43)n(-c3ccccc3C(C)C)c(=O)c12 [Compound 95]	< 100	< 1000	< 1000	< 100
Cc1cccc2cc(Cn3nc(-c4cccc(O)c4)c4c(N)ncnc43)n(-c3ccccc3Cl)c(=O)c12 [Compound 96]	< 100	> 10000	< 10000	< 100
Cc1cccc2cc(Cn3nc(-c4cc(O)cc(F)c4)c4c(N)ncnc43)n(-c3ccccc3Cl)c(=O)c12 [Compound 97]	< 100	< 10000	< 1000	< 100
Cc1cccc2cc(Cn3nc(C#C[C@@H](C)O)c4c(N)ncnc43)n(-c3ccccc3Cl)c(=O)c12 [Compound 98]	< 1000	> 10000	> 10000	< 100
CCc1ccccc1-n1c(Cn2nc(C#C[C@@H](C)O)c3c(N)ncnc32)cc2cccc(C)c2c1=O [Compound 99]	< 1000	> 10000	< 10000	< 100
